This note sets out measurements from publication PMC4532830, “Crystal structure, biochemical and cellular activities demonstrate separate functions of MTH1 and MTH2” (Nature Communications, 2015).

Like-named read-outs stand apart in the source and are kept apart here.

One data set addresses T1, NUDT18 (Homo sapiens, UniProt Q6ZVK8).
T1 construct: recombinant, cDNA codon-optimized for E. coli in pET28a(+); His-tag removed by TEV or thrombin
T1 sequence (Q6ZVK8 1-323): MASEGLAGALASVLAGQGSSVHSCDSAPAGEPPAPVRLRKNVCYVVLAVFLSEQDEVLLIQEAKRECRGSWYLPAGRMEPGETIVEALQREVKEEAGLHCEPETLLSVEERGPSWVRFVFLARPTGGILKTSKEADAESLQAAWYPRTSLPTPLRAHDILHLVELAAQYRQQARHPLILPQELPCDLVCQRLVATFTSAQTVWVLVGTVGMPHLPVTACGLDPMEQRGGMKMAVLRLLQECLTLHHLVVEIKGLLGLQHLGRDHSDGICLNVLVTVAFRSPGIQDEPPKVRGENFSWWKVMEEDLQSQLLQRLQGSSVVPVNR
The experiment in a line: phosphate release, malachite green assay. Format: biochemical. The note with it: 50 uM nucleotide, 25 nM enzyme, 22 C, 30 min, pH 8.0, 10 mM Mg acetate; which of 8-oxo-dGTP or 8-oxo-dGDP belongs to NUDT18 is not spelt out.

The target of another data set is T2, MTH1 (Homo sapiens, UniProt P36639).
T2 construct: gene NUDT1
The note with it: pH 7.5 but methods buffer pH 8.0, 10 mM Mg acetate, unit assumed.

Data set [1] concerns the molecule itself. In words: SEC; 10/300 GL S75 column, 20 mM HEPES pH 7.5, 300 mM NaCl, 10% glycerol, 0.5 mM TCEP; 0.24 mg NUDT15 in 500 ul.

Consider `Nc1nc2c([nH]c(=O)n2[C@H]2C[C@H](O)[C@@H](COP(=O)(O)OP(=O)(O)O)O2)c(=O)[nH]1` [8-oxo-dGDP], for which, on NUDT18, the “phosphate release, malachite green assay” value was “NUDT15 and NUDT18 have the ability to hydrolyse 8-oxo-dGTP or 8-oxo-dGDP in biochemical assays”.

As to `Nc1nc2c([nH]c(=O)n2[C@H]2C[C@H](O)[C@@H](COP(=O)(O)OP(=O)(O)OP(=O)(O)O)O2)c(=O)[nH]1` [8-oxo-dGTP], the Km on MTH1 (0-100 uM 8-oxo-dGTP, 0.25 nM enzyme) came out at 10.2 ± 0.8 µM.

For the molecule `Nc1nc2c(ncn2[C@H]2C[C@H](O)[C@@H](COP(=O)(O)OP(=O)(O)OP(=O)(O)O)O2)c(=O)[nH]1` [dGTP, 2′-Deoxyguanosine-5′-triphosphate], on MTH1 (0-400 uM dGTP, 2 nM enzyme), the Km turned out to be 110 ± 35 µM.

B1: NUDT15 (enzyme, human, UniProt Q9NV35 1-164, looked up)
chain: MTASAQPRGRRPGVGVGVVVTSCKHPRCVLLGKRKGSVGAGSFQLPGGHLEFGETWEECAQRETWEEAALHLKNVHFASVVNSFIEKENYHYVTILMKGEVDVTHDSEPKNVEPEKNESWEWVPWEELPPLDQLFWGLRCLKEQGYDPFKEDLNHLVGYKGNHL
notes: NUDT15 (MTH2), human, full length; expression construct pNIC28hNUDT15 from the Structural Genome Consortium; The His-tag was removed by TEV protease or thrombin; Crystals grew in the presence of alpha-chymotrypsin, so the chain in the crystal may be shorter than full length; also called MTH2; MutT homologue 2; source: E. coli BL21 (DE3) T1R pRARE2, purified (HisTrap HP, gel filtration Superdex 75)
Consider B1, for which, in data set [1], the “stoichiometry N” value worked out at 2.
